Data reported in patent US20140356383A1, “ADMINISTRATION OF AN ANTI-GCC ANTIBODY-DRUG CONJUGATE AND A DNA DAMAGING AGENT IN THE TREATMENT OF CANCER” (priority 2013, published 2014).

Legend:
HT 29 GCC #18 cells = assay: Direct cytotoxicity assay (WST), HT 29 GCC #18 cells; type: cell-based, human; conditions: auristatin ADCs
HT29-GCC#5 s.c. tumors = assay: Pilot efficacy studies in HT29-GCC#5 s.c. tumors; type: in vivo; conditions: 150 μg/kg on a q3d×5 schedule, mice bearing HT29-GCC#5 tumors
Experimental: Studies were performed to determine efficacious conjugates and dosage regimens in mice bearing HT29-GCC#5 tumors. Mice were dosed with single or multiple doses. These studies determined that there was toxicity at too frequent dosing at higher levels of toxin conjugate (e.g., 150 μg/kg 5F9vcMMAF on a q3d×5 schedule). Another study determined that q14d×5 schedule was too infrequent in this model to allow some toxin conjugates to show significant efficacy vs. controls.

293-GCC#2 tumors = assay: PK/PD study (phospho-histone H3) in 293-GCC#2 tumor bearing mice; type: in vivo
Source text: Phospho-histone H3 was detected by antibody (Upstate Biotechnology, now Millipore, Billerica, Mass.) staining of paraffin embedded sections of tumors.

293-GCC#2 s.c. tumors = assay: Efficacy study with 5F9vcMMAF and 5F9-DMx in 293-GCC#2 s.c. tumors, q14d×5; type: in vivo; conditions: 293-GCC#2 bearing SCID mice, 75 and 150 μg/kg toxin
Experimental: 5F9-SPDB-DM4, 5F9-SMCC-DM1 and 5F9vcMMAF were tested for efficacy in the 293-GCC#2 tumor model at two doses (75 μg/kg and 150 […] toxin), on a q14d×5 schedule. Specifically, this study included vehicle-treated control, Sc209-DM1 (150 μg/kg DM1 eq), Sc209-DM4 (150 μg/kg DM4 eq), Sc209-vcMMAF (150 μg/kg MMAF eq), 5F9-DM1 (150 μg/kg DM1 eq), 5F9-DM1 (75 μg/kg DM1 eq), 5F9-DM4 (150 μg/kg DM4 eq), 5F9-DM4 (75 μg/kg DM4 eq), 5F9-vcMMAF (150 μg/kg MMAF eq), and 5F9-vcMMAF (75 μg/kg MMAF eq). Taconic female mice bearing 293-GCC#2 cells (10 mice per group) were used.
FIG. 1 depicts tumor growth in 293-GCC#2 bearing SCID mice treated with 5F9vc-MMAF, -DM1, and -DM4 on a q14d schedule. […] Therefore at these doses and schedules, 5F9-SPDB-DM4 had the greatest efficacious differential from its control conjugate.

293 GCC#2 tumors = assay: Efficacy study with auristatin conjugates in 293 GCC#2 tumors, q7d×4; type: in vivo, SCID mice; conditions: for T/C: treatment/control
Experimental: 293 GCC#2 tumor-bearing SCID mice were treated with 5F9 conjugates with vc MMAE, vcMMAF or mcMMAF at three doses in comparison with 209 conjugates of these toxins or with free toxins or vehicle control. Doses were administered iv on a q7d×4 schedule. Tumors were harvested at days 3, 7, 10, 13 and 17. […] Table 18 provides a summary of the results (TGI=tumor growth inhibition, T/C=treatment/control, TGD=tumor growth delay, CR/PR=complete response/partial response; p value=measure to judge statistical significance, NS=not significant).

## 5F9-vcMMAF: 5F9 anti-GCC antibody conjugated with mc-vc-MMAF
HT 29 GCC #18 cells
  LD 50 (nM): >10,000 nM
HT29-GCC#5 s.c. tumors
  toxicity at too frequent dosing: toxicity
293-GCC#2 tumors; single iv dose 75 μg/kg, 1 hr
  Average % Tumor cells pH 3 positive: 4.235%
293-GCC#2 tumors; single iv dose 75 μg/kg, 4 hr
  Average % Tumor cells pH 3 positive: 4.184%
293-GCC#2 tumors; single iv dose 75 μg/kg, 8 hr
  Average % Tumor cells pH 3 positive: 4.93%
293-GCC#2 tumors; single iv dose 75 μg/kg, 24 hr
  Average % Tumor cells pH 3 positive: 20.22%
293-GCC#2 tumors; single iv dose 75 μg/kg, 48 hr
  Average % Tumor cells pH 3 positive: 9.921%
293-GCC#2 tumors; single iv dose 75 μg/kg, 96 hr
  Average % Tumor cells pH 3 positive: 10.38%
293-GCC#2 tumors; single iv dose 150 μg/kg, 1 hr
  Average % Tumor cells pH 3 positive: 3.466%
293-GCC#2 tumors; single iv dose 150 μg/kg, 4 hr
  Average % Tumor cells pH 3 positive: 4.417%
293-GCC#2 tumors; single iv dose 150 μg/kg, 8 hr
  Average % Tumor cells pH 3 positive: 8.594%
293-GCC#2 tumors; single iv dose 150 μg/kg, 24 hr
  Average % Tumor cells pH 3 positive: 21.54%
293-GCC#2 tumors; single iv dose 150 μg/kg, 48 hr
  Average % Tumor cells pH 3 positive: 15.16%
293-GCC#2 tumors; single iv dose 150 μg/kg, 96 hr
  Average % Tumor cells pH 3 positive: 11.12%
293-GCC#2 s.c. tumors
  efficacy (tumor growth, FIG. 1): the most efficacious
293 GCC#2 tumors; 37.5 μg/kg iv q7d×4
  TGI: 65.2
  T/C: 0.35
293 GCC#2 tumors; 37.5 μg/kg iv q7d×4, tumor growth delay
  TGD: 7.1
293 GCC#2 tumors; 75 μg/kg iv q7d×4
  TGI: 88.5
  T/C: 0.12
293 GCC#2 tumors; 150 μg/kg iv q7d×4
  TGI: 97
  T/C: 0.03
